Laboratory results published in patent US7311892B2, “Multidrug multiligand conjugates for targeted drug delivery” (priority 2001, dated 2007).

Columns and labels:
[1] = tested on: NCI-H1299 non-small cell lung cancer cells; test: Apoptosis induction assay (Annexin V-FITC, flow cytometry); type: cell-based; details: 50 nM, 3 hours exposure, then drug-free medium; analysed after 96 hours; triplicate
Method: Apoptosis was measured by an Annexin V-FITC kit. […] 2.3%, 2.5% and 2.4% induction for untreated cells, free PTX, the BTN/SaV complex and the BTN/SaV+PTX controls, respectively.
FIG. 6 illustrates the results of an apoptosis induction assay, illustrating NCI-HI299 cells are induced to undergo apoptosis specifically in response to the PTX-BBN[7-13]-BTN-SaV conjugate. Cells were grown as described above and in Example 3 and left untreated or treated with 50 nM of the PTX-BBN[7-13]-BTN-SaV conjugate, unconjugated paclitaxel (PTX), the biotin/streptavidin complex (BTN/SaV) or a mixture of BTN/SaV and PTX. After 3 hours, the media containing these additives was removed and replaced with fresh media. After 96 hours, the cells were removed from the 24 well plates by treatment with trypsin/EDTA and analyzed for Annexin V by flow cytometry using an Annexin V-FITC kit (Biovision, Palo Alto, Calif.). All treatments were done in triplicate and presented as the percentage of cells staining with Annexin V-FITC. […]
The HI299 cells were plated in 24 well plates at a density of 10,000 cells/well and allowed to adhere for 24 hours. […] After 96 hours, the cells were removed from the 24 well plates by treatment with trypsin/EDTA and analyzed for Annexin V by flow cytometry using an Annexin V-FITC kit (Biovision, Palo Alto, Calif.). […]

[2] = tested on: NCI-H1299 non-small cell lung cancer cells; test: Cell proliferation assay; type: cell-based; details: Homo sapiens, 50 nM, 3 hours exposure, then drug-free medium, cells counted after 96 hours, normalized to untreated cells, quadruplicate, read-out: growth inhibition
Method: Cells were grown as described in Example 2 and exposed to various treatments. The cells were left untreated or treated with 50 nM of the PTX-BBN[7-13]-BTN-SaV conjugate, unconjugated paclitaxel (PTX), the biotin/streptavidin complex (BTN/SaV) or a mixture of BTN/SaV and PTX. After 3 hours, the media containing these additives was removed and replaced with fresh media. After 96 hours, the cells were removed from the 24 well plates by treatment with trypsin/EDTA and counted with a Coulter particle counter. All treatments were done in quadruplicate and the cell counts were normalized to the untreated cells.
To evaluate the growth inhibitory effects of the PTX-BBN[7-13]-BTN/SaV conjugate, experiments were designed to compare the effect of the conjugate with the unconjugated paclitaxel, the BTN/SaV complex and a mixture of free PTX and the BTN/SaV complex (FIG. 5).
The HI299 cells were plated in 24 well plates at a density of 10,000 cells/well and allowed to adhere for 24 hours. The cells were treated with 50 nM of the following: 1) no treatment (Untreated); 2) unconjugated paclitaxel(PTX); 3) biotin/streptavidin complex (BTN/SaV); 4) a mixture of BTN/SaV and PTX; and 5) the PTX-BBN[7-13]-BTN/SaV conjugate (Conjugate) described in FIG. 1A. […] After 96 hours, the cells were removed from the 24 well plates by treatment with trypsin/EDTA and counted with a Coulter particle counter. […]

CC(=O)O[C@H]1C(=O)[C@@]2(C)[C@H]([C@H](OC(=O)c3ccccc3)[C@]3(O)C[C@H](OC(=O)[C@H](O)[C@@H](NC(=O)c4ccccc4)c4ccccc4)C(C)=C1C3(C)C)[C@]1(OC(C)=O)CO[C@@H]1C[C@@H]2O [free PTX, paclitaxel]
induction of apoptosis (percentage of cells staining with Annexin V-FITC) [1]: ~2.3% | inhibition at 0.05 µM [2]: 0%
